Calls of active or inactive are those of the source. Bounds are passed on as bounds.

A short description of data set [1]: cytotoxicity toward NIH3T3 fibroblasts, dose response, counter-screen, cell-based, ATP luminescence, mouse fibroblasts (AID 2010).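 Also: cells exposed to compound for about 90 hours before reading.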 It counts as functional. In general terms: Counterscreens check selectivity or assay interference.
The target in data set [2] is DNA dC->dU-editing enzyme APOBEC-3G (Homo sapiens, UniProt Q9HC16). It counts as functional.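 Also: Dose-response counterscreen measuring inhibition of APOBEC3G DNA deaminase activity, run while confirming APOBEC3A inhibitors.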
Chain of DNA dC->dU-editing enzyme APOBEC-3G (Q9HC16 whole entry): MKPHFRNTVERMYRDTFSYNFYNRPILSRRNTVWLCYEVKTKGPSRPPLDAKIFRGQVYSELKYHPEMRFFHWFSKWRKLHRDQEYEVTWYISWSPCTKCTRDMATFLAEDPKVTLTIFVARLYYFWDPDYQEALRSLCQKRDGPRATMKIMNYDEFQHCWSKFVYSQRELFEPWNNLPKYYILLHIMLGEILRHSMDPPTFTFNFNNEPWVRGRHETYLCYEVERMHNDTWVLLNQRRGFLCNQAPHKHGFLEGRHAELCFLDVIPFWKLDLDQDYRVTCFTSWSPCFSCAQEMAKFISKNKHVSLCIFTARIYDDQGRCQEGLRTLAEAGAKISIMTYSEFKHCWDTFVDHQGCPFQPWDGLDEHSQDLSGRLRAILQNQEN
Data set [3] addresses DNA dC->dU-editing enzyme APOBEC-3A (Homo sapiens, UniProt P31941). Description: Dose Response confirmation of small molecule APOBEC3A DNA Deaminase Inhibitors via a fluorescence-based single-stranded DNA deaminase assay. [Related pubchem assays (depositor defined):AID493011, AID493024]. It counts as functional.
Data set [4] is described as follows: inhibitors of intracellular T. cruzi replication, confirmation, NIH3T3 host cells, beta-gal luminescence (AID 2044).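 Also: intracellular parasites grown in NIH/3T3 mouse fibroblasts as host cells; luminescent beta-galactosidase reporter signal from transgenic T. cruzi replicating inside host cells; inhibitors lower the luminescence signal.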 It counts as functional, cell-based.
Another data set has as its target T1, Leucine aminopeptidase (Plasmodium falciparum 3D7, UniProt Q8IL11).
T1 sequence (Q8IL11 whole entry): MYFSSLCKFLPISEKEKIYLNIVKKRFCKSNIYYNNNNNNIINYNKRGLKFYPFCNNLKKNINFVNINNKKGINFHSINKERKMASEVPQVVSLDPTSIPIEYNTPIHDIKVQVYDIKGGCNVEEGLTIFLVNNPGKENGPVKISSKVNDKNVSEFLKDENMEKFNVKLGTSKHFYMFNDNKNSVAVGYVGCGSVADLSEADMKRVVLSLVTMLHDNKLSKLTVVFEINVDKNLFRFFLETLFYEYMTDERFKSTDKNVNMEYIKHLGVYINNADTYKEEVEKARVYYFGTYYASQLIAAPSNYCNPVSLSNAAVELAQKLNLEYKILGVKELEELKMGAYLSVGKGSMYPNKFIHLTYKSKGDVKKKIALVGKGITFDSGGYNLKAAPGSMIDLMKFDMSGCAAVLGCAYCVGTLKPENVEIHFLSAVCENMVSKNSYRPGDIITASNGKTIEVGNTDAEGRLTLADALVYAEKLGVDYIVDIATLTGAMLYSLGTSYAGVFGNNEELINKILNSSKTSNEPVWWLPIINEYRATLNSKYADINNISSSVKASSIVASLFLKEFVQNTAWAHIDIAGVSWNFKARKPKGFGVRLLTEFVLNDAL
The data set is described as follows: P. falciparum M17LAP inhibitors, primary screen, biochemical, fluorogenic H-Leu-NHMec substrate, 1536-well (AID 1619). The data set is classed as functional.

Data set [5] has as its target T2, RNA-binding protein pos-1 (Caenorhabditis elegans, UniProt G5EF15).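 Also: purified POS-1 fused to maltose binding protein made in E. coli; potency of compounds blocking POS-1 binding to fluorescent RNA.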
T2 sequence (G5EF15 whole entry): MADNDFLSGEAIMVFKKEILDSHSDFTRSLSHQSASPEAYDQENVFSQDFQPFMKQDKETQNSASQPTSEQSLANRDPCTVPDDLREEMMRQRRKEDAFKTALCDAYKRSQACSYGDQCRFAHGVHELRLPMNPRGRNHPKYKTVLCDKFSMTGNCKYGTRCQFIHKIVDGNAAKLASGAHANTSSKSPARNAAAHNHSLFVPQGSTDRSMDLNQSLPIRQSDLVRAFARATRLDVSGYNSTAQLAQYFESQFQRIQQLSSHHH
Description: inhibitors of POS-1/mex-3 RNA binding, dose response, biochemical, fluorescence polarization (AID 1964). (In general: In fluorescence polarisation assays a small probe gives low polarisation when free and higher when bound to something large.)

Data set [6] addresses T3, Zinc finger protein mex-5 (Caenorhabditis elegans, UniProt Q9XUB2).
T3 sequence (Q9XUB2 whole entry): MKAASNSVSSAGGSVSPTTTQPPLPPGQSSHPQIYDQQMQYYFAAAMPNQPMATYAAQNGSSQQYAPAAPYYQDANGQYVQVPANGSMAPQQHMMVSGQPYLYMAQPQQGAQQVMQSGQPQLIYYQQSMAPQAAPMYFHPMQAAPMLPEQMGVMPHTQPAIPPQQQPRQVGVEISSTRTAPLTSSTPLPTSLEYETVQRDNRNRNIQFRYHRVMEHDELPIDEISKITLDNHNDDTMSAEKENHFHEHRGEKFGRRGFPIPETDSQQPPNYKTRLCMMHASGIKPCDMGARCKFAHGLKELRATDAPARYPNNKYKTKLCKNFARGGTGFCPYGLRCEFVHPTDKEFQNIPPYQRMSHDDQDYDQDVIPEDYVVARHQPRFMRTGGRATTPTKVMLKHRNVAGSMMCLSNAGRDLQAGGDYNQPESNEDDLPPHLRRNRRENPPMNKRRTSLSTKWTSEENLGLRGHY
The data set is described as follows: MEX-5/TCR-2 RNA interaction inhibitors, dose response, biochemical, C. elegans, fluorescence polarization (AID 1960).

A short description of data set [7]: Shn3 3'UTR reporter inhibitors, dose response, cell-based, Clone20 osteoblasts, firefly luciferase, cherry-picked (AID 624132).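 Also: firefly luciferase luminescence from reporter carrying the Shn3 3'UTR in osteoblasts.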 It counts as functional.
Data set [8] can be described thus: HepG2 cell cytotoxicity, dose response, cytotoxicity control for Shn3 inhibitor project, CellTiter-Glo, cherry-picked (AID 624134). It counts as functional, cell-based. In general terms: ATP-based viability assays read luminescence as a measure of living cells.
Data set [9] is described as follows: NIH-3T3 fibroblast cytotoxicity, dose response, cytotoxicity control, cell-based, fluorescence, Alamar Blue, secondary assay (AID 2327).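 Also: NIH-3T3 mouse fibroblasts cultured with fluconazole at 8 µg/mL.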 The data set is classed as functional.
Data set [10] can be described thus: control 3'UTR Renilla luciferase suppression, dose response, counter-screen for Shn3 inhibitor project, cell-based, Clone20-Shn3RL, cherry-picked (AID 624133). It counts as functional.
Data set [11] in a line: C. albicans growth with fluconazole, confirmation, fluorescence, retest (AID 2467). The data set is classed as functional, cell-based.
The target in data set [12] is Heat shock protein HSP 90-alpha (Homo sapiens, UniProt P07900). It counts as functional, organism-based.
Data set [13] has as its target T4, Replicative DNA helicase DnaB (Mycobacterium tuberculosis, UniProt P9WMR3).
T4 sequence (P9WMR3 whole entry): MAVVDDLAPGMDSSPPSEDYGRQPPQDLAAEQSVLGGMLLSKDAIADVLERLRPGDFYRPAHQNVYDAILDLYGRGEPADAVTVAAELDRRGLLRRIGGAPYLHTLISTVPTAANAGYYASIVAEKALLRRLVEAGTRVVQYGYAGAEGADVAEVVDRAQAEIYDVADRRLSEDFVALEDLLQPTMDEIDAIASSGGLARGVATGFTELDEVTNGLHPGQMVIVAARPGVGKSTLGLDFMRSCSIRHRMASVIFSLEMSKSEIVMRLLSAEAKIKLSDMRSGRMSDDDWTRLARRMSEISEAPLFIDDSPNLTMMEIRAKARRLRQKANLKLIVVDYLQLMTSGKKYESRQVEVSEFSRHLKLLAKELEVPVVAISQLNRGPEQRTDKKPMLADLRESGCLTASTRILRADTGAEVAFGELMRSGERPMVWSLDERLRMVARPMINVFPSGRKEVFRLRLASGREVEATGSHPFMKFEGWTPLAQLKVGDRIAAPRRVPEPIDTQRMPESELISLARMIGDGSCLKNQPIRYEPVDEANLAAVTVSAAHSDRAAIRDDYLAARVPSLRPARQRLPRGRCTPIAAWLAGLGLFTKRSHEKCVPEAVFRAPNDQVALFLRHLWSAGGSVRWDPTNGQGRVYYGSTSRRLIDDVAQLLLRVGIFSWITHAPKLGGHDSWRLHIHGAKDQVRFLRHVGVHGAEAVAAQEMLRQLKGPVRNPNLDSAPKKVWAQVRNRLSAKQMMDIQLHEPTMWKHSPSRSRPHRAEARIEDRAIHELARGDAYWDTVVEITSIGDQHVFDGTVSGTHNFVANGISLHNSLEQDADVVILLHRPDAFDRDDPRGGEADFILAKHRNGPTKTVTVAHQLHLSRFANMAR
Description: DnaB intein splicing inhibitors, dose response, biochemical, cell-free fluorescence (AID 449749). It counts as functional.

Data set [14] can be described thus: Intein inhibitors as potential Tuberculosis drugs, a cytotoxicity screen. [Related pubchem assays (depositor defined):AID2221, AID2223, AID434968, AID435010, AID449749, AID449750, AID489010]. It counts as functional.
Another data set addresses T5, Protein RecA (Mycobacterium tuberculosis, UniProt P9WHJ3).
T5 sequence (P9WHJ3 whole entry): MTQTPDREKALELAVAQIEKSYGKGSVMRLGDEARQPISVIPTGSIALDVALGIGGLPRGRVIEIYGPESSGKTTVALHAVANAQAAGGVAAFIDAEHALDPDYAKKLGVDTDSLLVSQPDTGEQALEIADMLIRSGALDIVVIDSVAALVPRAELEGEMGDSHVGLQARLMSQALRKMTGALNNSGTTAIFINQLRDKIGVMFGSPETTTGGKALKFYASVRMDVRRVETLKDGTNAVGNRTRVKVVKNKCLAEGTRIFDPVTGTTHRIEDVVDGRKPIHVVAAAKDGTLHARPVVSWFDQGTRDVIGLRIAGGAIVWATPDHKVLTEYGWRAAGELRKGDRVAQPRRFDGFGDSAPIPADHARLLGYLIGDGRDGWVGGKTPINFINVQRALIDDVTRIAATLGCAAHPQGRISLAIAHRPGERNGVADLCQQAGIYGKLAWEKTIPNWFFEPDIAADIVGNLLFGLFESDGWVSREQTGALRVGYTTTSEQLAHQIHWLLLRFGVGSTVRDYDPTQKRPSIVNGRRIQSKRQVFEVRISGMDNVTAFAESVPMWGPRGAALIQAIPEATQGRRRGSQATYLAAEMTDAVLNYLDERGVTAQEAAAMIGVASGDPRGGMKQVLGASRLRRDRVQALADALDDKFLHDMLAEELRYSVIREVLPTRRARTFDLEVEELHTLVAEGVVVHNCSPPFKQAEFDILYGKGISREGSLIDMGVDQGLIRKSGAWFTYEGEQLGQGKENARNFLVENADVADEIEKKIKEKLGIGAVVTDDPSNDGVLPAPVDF
Description: Fluorescence Cell-Free Homogeneous Dose Retest to Identify Inhibitors of RecA-Intein Splicing Activity. [Related pubchem assays (depositor defined):AID2097, AID2223, AID489010, AID492950]. The data set is classed as functional.

For the next data set, the target named is Cytochrome P450 2C9 (Homo sapiens, UniProt P11712).
Chain of Cytochrome P450 2C9 (P11712 whole entry): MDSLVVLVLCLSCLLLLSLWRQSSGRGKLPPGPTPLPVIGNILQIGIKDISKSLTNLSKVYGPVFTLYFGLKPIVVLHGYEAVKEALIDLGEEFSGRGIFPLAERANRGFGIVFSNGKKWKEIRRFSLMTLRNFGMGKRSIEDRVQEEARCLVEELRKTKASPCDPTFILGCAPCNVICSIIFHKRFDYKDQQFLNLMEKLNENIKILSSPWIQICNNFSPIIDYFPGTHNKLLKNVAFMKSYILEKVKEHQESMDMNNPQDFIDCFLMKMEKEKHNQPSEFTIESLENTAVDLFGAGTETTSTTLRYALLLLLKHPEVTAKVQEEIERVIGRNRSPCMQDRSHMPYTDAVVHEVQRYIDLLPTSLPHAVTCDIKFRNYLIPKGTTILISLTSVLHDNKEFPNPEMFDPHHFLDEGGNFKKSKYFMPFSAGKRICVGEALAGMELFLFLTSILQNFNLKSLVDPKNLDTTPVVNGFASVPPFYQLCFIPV
Another data set deals with INS1. The data set is described as follows: beta cell apoptosis inhibitors, cytokine rescue, dose response, luminescence, retest (AID 449756).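 Also: cell death triggered by IL-1 beta plus TNF-alpha plus IFN-gamma mixture; protective hits raise ATP signal compared with cytokine alone wells.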 The data set is classed as functional, cell-based. The conditions noted are these: Rattus norvegicus.
The target of a further data set is Large T antigen (Simian virus 40, UniProt P03070). The data set is classed as functional, Betapolyomavirus macacae.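 Also: Confirmatory-stage PubChem screen for compounds that inhibit SV40 T antigen.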
Chain of Large T antigen (P03070 whole entry): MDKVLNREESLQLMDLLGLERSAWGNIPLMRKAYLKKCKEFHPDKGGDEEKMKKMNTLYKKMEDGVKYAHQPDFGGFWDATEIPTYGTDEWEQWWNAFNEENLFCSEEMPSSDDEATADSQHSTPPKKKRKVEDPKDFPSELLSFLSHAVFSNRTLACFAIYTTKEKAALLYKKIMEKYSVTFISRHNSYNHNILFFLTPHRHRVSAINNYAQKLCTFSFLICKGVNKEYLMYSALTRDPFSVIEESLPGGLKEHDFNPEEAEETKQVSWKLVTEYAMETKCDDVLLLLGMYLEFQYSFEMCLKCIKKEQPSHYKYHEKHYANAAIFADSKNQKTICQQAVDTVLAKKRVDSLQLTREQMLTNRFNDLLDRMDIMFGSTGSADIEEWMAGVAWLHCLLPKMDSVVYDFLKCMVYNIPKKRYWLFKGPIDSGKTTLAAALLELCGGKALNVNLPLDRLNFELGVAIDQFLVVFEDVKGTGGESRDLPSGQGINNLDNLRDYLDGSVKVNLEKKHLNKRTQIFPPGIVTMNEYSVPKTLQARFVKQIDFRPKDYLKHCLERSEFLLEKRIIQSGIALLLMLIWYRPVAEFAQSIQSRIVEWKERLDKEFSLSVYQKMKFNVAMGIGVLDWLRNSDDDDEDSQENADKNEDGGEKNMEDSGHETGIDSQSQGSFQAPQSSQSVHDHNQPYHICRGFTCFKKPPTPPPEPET
Data set [15] concerns the target T6, SUMO-activating enzyme (Homo sapiens, UniProt Q9UBT2). The data set is described as follows: SUMOylation inhibitor hit validation, confirmation, SUMOylation inhibitor project, biochemical, AlphaScreen (AID 2018). It counts as functional.
The target in data set [16] is FAD-linked sulfhydryl oxidase ALR (Homo sapiens, UniProt P55789). The data set is described as follows: inhibitors of human ALR sulfhydryl oxidase, dose response, biochemical, H2O2 detection, luminescence, cherry-pick (AID 493248).
Chain of FAD-linked sulfhydryl oxidase ALR (P55789 whole entry): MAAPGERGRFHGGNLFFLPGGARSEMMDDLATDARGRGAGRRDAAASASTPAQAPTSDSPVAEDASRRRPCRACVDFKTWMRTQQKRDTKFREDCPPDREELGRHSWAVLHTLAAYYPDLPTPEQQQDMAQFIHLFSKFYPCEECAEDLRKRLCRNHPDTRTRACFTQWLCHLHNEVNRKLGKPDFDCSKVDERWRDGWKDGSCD
Data set [17] concerns the target T6, SUMO-activating enzyme. The data set is described as follows: inhibitors of in vitro SUMOylation cascade, primary screen, biochemical, HTRF, uHTS (AID 2006). The data set is classed as protein-complex assay.
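For CC50 in this document: cells exposed to compound for 72 hours before luminescence readout.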

Chain of DNA dC->dU-editing enzyme APOBEC-3A (P31941 whole entry): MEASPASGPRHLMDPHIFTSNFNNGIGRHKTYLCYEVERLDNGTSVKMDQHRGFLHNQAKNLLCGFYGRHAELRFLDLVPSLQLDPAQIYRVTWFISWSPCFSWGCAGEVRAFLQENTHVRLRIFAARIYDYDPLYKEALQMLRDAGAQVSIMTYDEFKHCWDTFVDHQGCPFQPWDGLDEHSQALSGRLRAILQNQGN
T6 sequence (Q9UBE0 whole entry): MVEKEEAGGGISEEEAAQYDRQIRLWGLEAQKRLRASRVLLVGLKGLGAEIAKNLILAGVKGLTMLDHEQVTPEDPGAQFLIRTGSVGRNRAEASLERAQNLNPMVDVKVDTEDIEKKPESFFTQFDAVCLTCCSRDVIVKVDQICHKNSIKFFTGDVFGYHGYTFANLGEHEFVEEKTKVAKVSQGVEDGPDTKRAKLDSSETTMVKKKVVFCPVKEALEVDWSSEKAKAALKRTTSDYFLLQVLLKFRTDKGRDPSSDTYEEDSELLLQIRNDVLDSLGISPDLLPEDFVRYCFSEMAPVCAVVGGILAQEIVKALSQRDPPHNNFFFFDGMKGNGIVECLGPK
T6 sequence (Q9UBT2 whole entry): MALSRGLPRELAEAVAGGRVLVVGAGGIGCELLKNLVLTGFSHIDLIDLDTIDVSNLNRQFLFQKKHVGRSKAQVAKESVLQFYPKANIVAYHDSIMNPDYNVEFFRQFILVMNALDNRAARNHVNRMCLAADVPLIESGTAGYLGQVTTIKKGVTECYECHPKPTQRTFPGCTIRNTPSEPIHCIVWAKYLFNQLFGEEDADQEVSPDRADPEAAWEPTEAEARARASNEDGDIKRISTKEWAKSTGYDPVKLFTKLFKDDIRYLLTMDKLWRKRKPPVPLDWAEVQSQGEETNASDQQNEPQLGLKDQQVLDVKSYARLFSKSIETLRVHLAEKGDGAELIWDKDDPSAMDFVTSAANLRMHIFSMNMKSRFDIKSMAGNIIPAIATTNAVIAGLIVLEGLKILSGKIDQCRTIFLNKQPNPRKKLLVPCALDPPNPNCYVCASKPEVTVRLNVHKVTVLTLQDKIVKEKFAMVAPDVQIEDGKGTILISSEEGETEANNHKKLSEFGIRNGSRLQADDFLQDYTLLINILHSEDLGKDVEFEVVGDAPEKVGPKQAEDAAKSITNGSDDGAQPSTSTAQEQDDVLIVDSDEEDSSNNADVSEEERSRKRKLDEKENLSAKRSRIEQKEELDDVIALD

In general, EC50 refers to the concentration giving half of the maximal effect. The IC50 is the point on the concentration scale where inhibition reaches its midpoint. `Cc1ccc(OCC(=O)Nc2ccc(S(=O)(=O)N(C)C3CCN(C)CC3)cc2)c(C)c1`: the values for the EC50 in data set [1] and in data set [4] were > 60 µM (not active) and 0.32 µM (active), respectively. The IC50 in data set [2] was 6.95 µM (active); in data set [3] it was 3.31 µM (active).
Regarding `O=C(O)c1cccc(-n2cccc2/C=C2/NC(=O)N(Cc3ccccc3F)C2=O)c1`, the IC50 is 53.2 µM (active) on Leucine aminopeptidase, 42.9 µM (active) in [2] and 14.9 µM (active) in [3]. For the same molecule, the EC50 in [5] and in data set [6] was > 300 µM (not active) throughout.
As a reminder, the AC50 is the concentration giving half of the maximal activity seen. As a reminder, the CC50 is the concentration that lowers cell viability or growth by half. Regarding `O=C(OCn1ncc(Cl)c(Cl)c1=O)c1cccc(C(F)(F)F)c1`, the AC50 in [7] was 3.74 µM (active); in [8] it was 49.7 µM (active); in [10], 7.88 µM (active); in data set [12], 4.11 µM (active); in data set [13], 1.44 µM (active); on Cytochrome P450 2C9, “inconclusive”. Besides, the concentration for a half-maximal effect (EC50) in data set [9] is 5.31 µM (inconclusive); in data set [11], 0.781 µM (active); on Protein RecA, 0.19 µM (active). In addition, in data set [14], the CC50 is 8.16 µM (active).
As for `Cc1cccc(Cn2nnc3c2C(=O)c2ccccc2C3=O)c1`, the values for the EC50 (in [1]; on Protein RecA; in data set [4]) were > 30 µM (not active), 0.446 µM (active) and 2.58 µM (active), respectively. In addition, the AC50 in data set [13] was 4.2 µM (active); in the data set with INS1 it was 5.21 µM (active). The CC50 in [14] is 11.7 µM (active).
As for `Sc1nnc(-c2ccc(Cl)cc2)n1/N=C/C=C/c1ccco1`, the IC50 was 69.2 µM (active) at Large T antigen, 7.66 µM (active) at SUMO-activating enzyme [15] and 59.1 µM (active) on SUMO-activating enzyme [17]. Further, the AC50 in data set [16] was 1.95 µM (active).
With `CCn1c(C=CN(C(C)=O)c2ccccc2)[n+](CC)c2cc(Cl)ccc21`, the IC50 was 4.45 µM (active) in data set [2] and 2.23 µM (active) in [3].

For the origin of these results see ChEMBL document CHEMBL1201862, “PubChem BioAssay data set” (2004).
